For one test, the system named is NCI-H1703 cells. The test is described as follows: GLS Cell Proliferation Assay (NCI-H1703). The test is classed as cell-based, human. The settings on record: Homo sapiens, 120 h; NCI-H1703 cells, 5 days incubation; geometric mean where repeated; read-out: Assay c) GLS Cell Proliferation Assay.
The next test has as its target cellular GLS activity (Homo sapiens (Human), UniProt O94925). The test is described as follows: GLS Cell Potency Assay (PC3 coupled assay measuring cellular glutamate depletion). The test is classed as cell-based. The conditions noted are these: PC3 cells, 6 h incubation, cellular glutamate depletion; geometric mean where repeated; read-out: Assay b) GLS Cell Potency Assay IC50. From the text:
The following assays were used to measure the effects of the compounds of the present invention: a) GLS Enzyme Potency Assay; b) GLS Cell Potency Assay; c) GLS Cell Proliferation Assay; and d) Mouse Xenograft Model. During the description of the assays, generally: • i. The following abbreviations have been used: CO2=Carbon dioxide; DMEM=Dulbecco's Modified Eagle Medium; DMSO=Dimethyl sulphoxide; EDTA=Ethylenediaminetetraacetic acid; EGTA=Ethylene glycol tetraacetic acid; FCS=Foetal calf serum; h=Hour(s); NBS=Non-binding surface; SDS=Sodium dodecyl sulphate; r.t.=room temperature; TRIS=Tris(Hydroxymethyl)aminomethane. • ii. […]
Compounds were assessed for their potential to inhibit cellular GLS activity by use of a PC3 coupled assay measuring cellular glutamate depletion. […] DMSO concentration was maintained at 0.3% by back filling with DMSO solution. PC3 cells were grown in phenol free DMEM, 10% dialyzed FCS, 2 mM glutamine and following dispersal by trypsinisation were plated at 5.6×10^3 cells per well in 40 μl of growth medium directly into the 384 well assay plates containing dispensed compound. After incubation for 6 h at 37° C., 5% CO2 growth media was aspirated and cells lysed in 15 μl of buffer containing 10 mM TRIS pH7.4, 100 mM NaCl, 1 mM EDTA, 1 mM EGTA, 1 mM NaF, 20 mM Na4P2O7, 2 mM Na3VO4, 1% Triton X-100, 10% glycerol, 0.1% SDS and 0.5% deoxycholate.

A further test has as its target GLS1 (Homo sapiens (Human), UniProt O94925). The test is described as follows: GLS Enzyme Potency Assay (Glutamate Oxidase/AmplexRed coupled assay). The conditions noted are these: 6His tagged GLS protein (amino acids 63-669); geometric mean where repeated. The test is classed as biochemical. The text has this:
The following assays were used to measure the effects of the compounds of the present invention: a) GLS Enzyme Potency Assay; b) GLS Cell Potency Assay; c) GLS Cell Proliferation Assay; and d) Mouse Xenograft Model. During the description of the assays, generally: • i. The following abbreviations have been used: CO2=Carbon dioxide; DMEM=Dulbecco's Modified Eagle Medium; DMSO=Dimethyl sulphoxide; EDTA=Ethylenediaminetetraacetic acid; EGTA=Ethylene glycol tetraacetic acid; FCS=Foetal calf serum; h=Hour(s); NBS=Non-binding surface; SDS=Sodium dodecyl sulphate; r.t.=room temperature; TRIS=Tris(Hydroxymethyl)aminomethane. • ii. IC50 values were calculated using a smart fitting model in Genedata. […] Assay a): GLS Enzyme Potency Assay
A Glutamate Oxidase/AmplexRed coupled assay was used to measure the ability of compounds to bind to and inhibit the activity of GLS1 in vitro. […] GLS1 was diluted to 2× working concentration and incubated at r.t. to allow the tetrameric/dimeric forms to reach steady state. Assay measurements were performed in buffer comprising 50 mM TRIS pH 7.8, 100 mM NaPO4, pH 7.8, 0.001% v/v Tween20. […] DMSO concentration was maintained at 2% by back filling with DMSO solution. […] 3 μL of 100 mM glutamine diluted in assay buffer was then added and the reaction incubated at r.t. for 60 minutes. […] An artefact version of the assay where the 6His tagged GLS protein and glutamine were replaced with assay buffer was also used to rule out non specific effects on the assay components.

Chain of cellular GLS activity (O94925 55-669): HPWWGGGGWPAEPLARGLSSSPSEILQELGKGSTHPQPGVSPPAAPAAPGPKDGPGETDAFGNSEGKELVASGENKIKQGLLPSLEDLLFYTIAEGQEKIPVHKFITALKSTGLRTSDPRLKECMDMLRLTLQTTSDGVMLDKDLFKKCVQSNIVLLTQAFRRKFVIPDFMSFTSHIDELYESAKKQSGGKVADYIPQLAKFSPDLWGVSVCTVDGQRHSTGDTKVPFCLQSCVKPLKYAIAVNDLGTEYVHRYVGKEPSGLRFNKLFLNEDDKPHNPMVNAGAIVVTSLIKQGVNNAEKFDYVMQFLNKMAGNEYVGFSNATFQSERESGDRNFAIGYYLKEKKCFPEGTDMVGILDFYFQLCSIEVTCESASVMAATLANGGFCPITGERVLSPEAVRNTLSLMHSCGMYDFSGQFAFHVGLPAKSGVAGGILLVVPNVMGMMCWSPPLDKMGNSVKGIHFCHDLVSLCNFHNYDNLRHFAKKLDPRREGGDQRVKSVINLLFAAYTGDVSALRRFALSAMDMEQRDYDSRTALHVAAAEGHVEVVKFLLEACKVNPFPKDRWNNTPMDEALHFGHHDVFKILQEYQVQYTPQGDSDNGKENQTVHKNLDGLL
Chain of GLS1 (O94925 63-669): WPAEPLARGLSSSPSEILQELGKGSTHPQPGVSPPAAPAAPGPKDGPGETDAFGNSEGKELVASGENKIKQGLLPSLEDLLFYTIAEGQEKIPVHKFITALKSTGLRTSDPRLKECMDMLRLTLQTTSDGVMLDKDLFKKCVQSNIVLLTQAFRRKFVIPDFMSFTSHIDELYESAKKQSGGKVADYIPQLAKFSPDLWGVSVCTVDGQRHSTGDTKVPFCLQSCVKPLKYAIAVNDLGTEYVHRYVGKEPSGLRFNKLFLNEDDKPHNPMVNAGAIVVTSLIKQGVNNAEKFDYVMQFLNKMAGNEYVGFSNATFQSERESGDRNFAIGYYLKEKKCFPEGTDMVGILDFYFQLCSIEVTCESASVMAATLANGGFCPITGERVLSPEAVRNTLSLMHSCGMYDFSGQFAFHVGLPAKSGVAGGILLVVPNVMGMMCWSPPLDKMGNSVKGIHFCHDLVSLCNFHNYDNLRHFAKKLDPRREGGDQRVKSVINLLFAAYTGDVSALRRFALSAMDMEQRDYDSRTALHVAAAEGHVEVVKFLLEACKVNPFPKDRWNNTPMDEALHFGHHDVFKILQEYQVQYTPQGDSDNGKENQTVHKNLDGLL

As for `CO[C@H](C(=O)Nc1nnc(N[C@@H]2CCN(c3cncnn3)C2)s1)c1ccccc1` [Example 3, (2S)-2-Methoxy-2-phenyl-N-[5-[[(3R)-1-(1,2,4-triazin-6-yl)pyrrolidin-3-yl]amino]-1,3,4-thiadiazol-2-yl]acetamide], the figures for the IC50 with NCI-H1703 cells, on cellular GLS activity and on GLS1 were 3.24 nM, 0.39 nM and 29 nM, respectively.
In the case of `COc1cccc([C@H](OC)C(=O)Nc2nnc(N[C@@H]3CCN(c4nccnn4)C3)s2)c1` [Example 4(a), (2S)-2-Methoxy-2-(3-methoxyphenyl)-N-[5-[[(3R)-1-(1,2,4-triazin-3-yl)pyrrolidin-3-yl]amino]-1,3,4-thiadiazol-2-yl]acetamide], the IC50 came out at 5.01 nM in the test with NCI-H1703 cells, 1.51 nM on cellular GLS activity and 35.5 nM against GLS1.
The corresponding values for `COc1cccc([C@@H](OC)C(=O)Nc2nnc(N[C@@H]3CCN(c4nccnn4)C3)s2)c1` [Example 4(b), (2R)-2-Methoxy-2-(3-methoxyphenyl)-N-[5-[[(3R)-1-(1,2,4-triazin-3-yl)pyrrolidin-3-yl]amino]-1,3,4-thiadiazol-2-yl]acetamide] are 262 nM, 76 nM and 908 nM.
The corresponding values for `COc1cccc([C@H](OC)C(=O)Nc2nnc(N[C@@H]3CCN(c4cccnn4)C3)s2)c1` [Example 5(a), (2S)-2-Methoxy-2-(3-methoxyphenyl)-N-[5-[[(3R)-1-pyridazin-3-ylpyrrolidin-3-yl]amino]-1,3,4-thiadiazol-2-yl]acetamide] are 3.38 nM, 0.19 nM and 21.5 nM.
On to `COc1cccc([C@@H](OC)C(=O)Nc2nnc(N[C@@H]3CCN(c4cccnn4)C3)s2)c1` [Example 5(b), (2R)-2-Methoxy-2-(3-methoxyphenyl)-N-[5-[[(3R)-1-pyridazin-3-ylpyrrolidin-3-yl]amino]-1,3,4-thiadiazol-2-yl]acetamide], for which the IC50 in the test on NCI-H1703 cells is 53.5 nM; on cellular GLS activity, 5.3 nM; at GLS1 it was 87.9 nM.
As for `CO[C@H](C(=O)Nc1nnc(N[C@@H]2CCN(c3nccnn3)C2)s1)c1cccc(OC(F)F)c1` [Example 6(a), (2S)-2-[3-(Difluoromethoxy)phenyl]-2-methoxy-N-[5-[[(3R)-1-(1,2,4-triazin-3-yl)pyrrolidin-3-yl]amino]-1,3,4-thiadiazol-2-yl]acetamide], the figures for the IC50 with NCI-H1703 cells, at cellular GLS activity and against GLS1 were 16.6 nM, 2.57 nM and 85.1 nM, respectively.
The corresponding values for `CO[C@@H](C(=O)Nc1nnc(N[C@@H]2CCN(c3nccnn3)C2)s1)c1cccc(OC(F)F)c1` [Example 6(b), (2R)-2-[3-(Difluoromethoxy)phenyl]-2-methoxy-N-[5-[[(3R)-1-(1,2,4-triazin-3-yl)pyrrolidin-3-yl]amino]-1,3,4-thiadiazol-2-yl]acetamide] are 81.7 nM, 37 nM and 519 nM.
The corresponding values for `CO[C@H](C(=O)Nc1nnc(N[C@@H]2CCN(c3cccnn3)C2)s1)c1cccc(OC(F)(F)F)c1` [Example 9(a), (2S)-2-Methoxy-N-[5-[[(3R)-1-pyridazin-3-ylpyrrolidin-3-yl]amino]-1,3,4-thiadiazol-2-yl]-2-[3-(trifluoromethoxy)phenyl]acetamide] are 0.725 nM, 0.14 nM and 18.6 nM.
For the compound `CO[C@@H](C(=O)Nc1nnc(N[C@@H]2CCN(c3cccnn3)C2)s1)c1cccc(OC(F)(F)F)c1` [Example 9(b), (2R)-2-Methoxy-N-[5-[[(3R)-1-pyridazin-3-ylpyrrolidin-3-yl]amino]-1,3,4-thiadiazol-2-yl]-2-[3-(trifluoromethoxy)phenyl]acetamide], the IC50 came out at 4.4 nM with NCI-H1703 cells, 2.3 nM at cellular GLS activity and 32.9 nM against GLS1.
The corresponding values for `CCO[C@@H](C(=O)Nc1nnc(N[C@@H]2CCN(c3cccnn3)C2)s1)c1ccccc1` [Example 10(b), (2R)-2-Ethoxy-2-phenyl-N-[5-[[(3R)-1-pyridazin-3-ylpyrrolidin-3-yl]amino]-1,3,4-thiadiazol-2-yl]acetamide] are 234 nM, 13 nM and 110 nM.
The corresponding values for `COc1ccc([C@H](OC)C(=O)Nc2nnc(N[C@@H]3CCN(c4cccnn4)C3)s2)cc1` [Example 11, (2S)-2-Methoxy-2-(4-methoxyphenyl)-N-[5-[[(3R)-1-pyridazin-3-ylpyrrolidin-3-yl]amino]-1,3,4-thiadiazol-2-yl]acetamide] are 10.8 nM, 0.401 nM and 31 nM.
The corresponding values for `CCO[C@H](C(=O)Nc1nnc(N[C@@H]2CCN(c3cccnn3)C2)s1)c1ccc(F)cc1` [Example 13(a), (2S)-2-Ethoxy-2-(4-fluorophenyl)-N-[5-[[(3R)-1-pyridazin-3-ylpyrrolidin-3-yl]amino]-1,3,4-thiadiazol-2-yl]acetamide] are 18.3 nM, 0.96 nM and 27 nM.
On to `CCO[C@@H](C(=O)Nc1nnc(N[C@@H]2CCN(c3cccnn3)C2)s1)c1ccc(F)cc1` [Example 13(b), (2R)-2-Ethoxy-2-(4-fluorophenyl)-N-[5-[[(3R)-1-pyridazin-3-ylpyrrolidin-3-yl]amino]-1,3,4-thiadiazol-2-yl]acetamide], for which the IC50 in the test on NCI-H1703 cells amounted to 560 nM; on cellular GLS activity, 14 nM; against GLS1, 170 nM.
`COc1cc([C@H](OC)C(=O)Nc2nnc(N[C@@H]3CCN(c4cccnn4)C3)s2)ccc1F` [Example 14(a), (2S)-2-(4-Fluoro-3-methoxy-phenyl)-2-methoxy-N-[5-[[(3R)-1-pyridazin-3-ylpyrrolidin-3-yl]amino]-1,3,4-thiadiazol-2-yl]acetamide]: the IC50 in the test with NCI-H1703 cells was 15.1 nM; at cellular GLS activity it was 0.78 nM; at GLS1, 25.5 nM.
The like results for `COc1cc([C@@H](OC)C(=O)Nc2nnc(N[C@@H]3CCN(c4cccnn4)C3)s2)ccc1F` [Example 14(b), (2R)-2-(4-Fluoro-3-methoxy-phenyl)-2-methoxy-N-[5-[[(3R)-1-pyridazin-3-ylpyrrolidin-3-yl]amino]-1,3,4-thiadiazol-2-yl]acetamide] were, in that order, 518 nM, 65 nM and 168 nM.
Consider `COc1ccc([C@H](OC)C(=O)Nc2nnc(N[C@@H]3CCN(c4nccnn4)C3)s2)cc1` [Example 24, (2S)-2-methoxy-2-(4-methoxyphenyl)-N-[5-[[(3R)-1-(1,2,4-triazin-3-yl)pyrrolidin-3-yl]amino]-1,3,4-thiadiazol-2-yl]acetamide], for which the IC50 in the test on NCI-H1703 cells stood at 118 nM; on cellular GLS activity it was 4.58 nM; against GLS1 it was 74.7 nM.

(Values after patent publication US10040788B2, “1,3,4-thiadiazole compounds and their use in treating cancer” (AstraZeneca AB, priority 2014, dated 2018).)
